Test results from patent US20260000642A1 (Tay Therapeutics Limited, priority 2022, published 2026).
Several values for one entry are separate records, joined by “and”; a condition that tells them apart may be missing. Equal values may be shown once. Entries after “also recorded” stand apart in the source; their conditions may differ. Read-outs that look alike come from different tables or passages of the source.

Columns and labels:
[1] = Beagle dog PK study 1 (IV and PO, propylene glycol-based formulation); assay type: in vivo; settings: for concentration at 0.25 h / concentration at 0.5 h / concentration at 1 h / concentration at 2 h / concentration at 4 h / concentration at 8 h / concentration at 24 h: beagle, dog, plasma, po, 5 mg/kg
Method: The purpose of this study was to examine the pharmacokinetics of Example 101 in beagle dogs. […] An oral PK study was also undertaken in Lewis rats—see Experimental Method C.
Body weight was recoded prior to dosing, and detailed clinical observations were made prior to dosing and throughout the study, as needed.
Subsequently, 17.320 mL Vitamin E TPGS was added, and the solution was vortexed and sonicated. Then, 51.960 mL water was added, and solution was then heated. […] Subsequently, 39.894 mL Vitamin E TPGS was added, and the solution was vortexed and sonicated. Then, 119.682 mL water was added, and the solution was heated.
Blood samples (˜0.3 mL) were collected according to a schedule (detailed below) by venipuncture of peripheral veins except for the dosing vein, and EDTA-K2 was used as anticoagulant. Within 30 minutes of collection, the samples were centrifuged at approximately 2000× g for 10 minutes at 4° C. to obtain blood plasma. The plasma samples were immediately divided into two aliquots (˜75 μL each), transferred to a cryogenic vial, and stored in a freezer at −75±15° C. prior to analysis.
Blood samples were collected at 0.25, 0.5, 1, 2, 4, 8, and 24 h following the initial dosing (0 h).
The experiments were conducted on a Shimadzu DGU-20A5R and AB API 5500+LC/MS/MS instrument with an Agilent Poroshell EC-C18 4 μm (50×2.1 mm) column. A gradient of 95% water (0.1% formic acid)/95% acetonitrile (0.1% formic acid) was used as the mobile phase. The sample injection volume was 1 μL, and the flow rate was 0.6 mL/min. The gathered data were used for pharmacokinetic calculations using T½, C0, AUClast, AUCinf, MRTinf, CI, Vss, and Number of Points for Regression as parameters.

[2] = Plasma stability assay, mouse plasma; assay type: in vitro ADME; settings: 37° C., Method 1 (5 μM)
Method: Exemplary compounds of the disclosure are stable upon incubation in mouse plasma. Stability is expressed as a % remaining after 120 minutes. The experimental methods and results (Table 2) are provided hereinafter.
Plasma Stability Assay, Method 1
From stock solution of compound in 10 mM DMSO, a working solution of 1 mM is prepared by diluting the compound in DMSO. To 398 μL of plasma pre-warmed at 37° C. for 15 minutes), 2 μL of working solution of compound is added, resulting in a final concentration of 5 μM (0.5% DMSO) for the compound. The sample is then incubated at 37° C. Aliquot is withdrawn at specified time-points (0, 15, 30, 60 and 120 mins). The reaction is stopped by addition of 450 μL cold acetonitrile containing internal standard (IS). […] Aliquots of the supernatant is analysed using LC-MS/MS. The percent remaining of the compound at each time point is calculated with respect to the control sample (0 min time-point).
Plasma Stability Assay, Method 2
A working solution of compound (500 μM) is prepared in DMSO (100%). To 735 μL of plasma, 15 μL of working solution of compound is added—resulting in a final concentration of 10 μM (2% DMSO) for the compound. […] The samples are centrifuged and the supernatants analyzed using LC-MS/MS. The percent remaining of the compound at each time point is calculated with respect to the control sample (0 min time-point).

[3] = Pharmacokinetics of Example 101 in Lewis rats (oral, CIA study); assay type: in vivo, Lewis rat
Method: Blood samples were collected from animals in group 8 on Day 0, and blood samples were collected from group 9 on Day 20. Blood samples from group 8 and group 9 were collected at 0.25, 0.5, 1, 2, 4, 8, 10, 12, 13, and 24-hours following morning administration of their first dose of the compound. The second dose of the compound was administered after the 8-hour collection timepoint. All blood samples were collected at the eye socket and put into tubes containing EDTA-K2 as an anticoagulant and centrifuged at 4° C. at 4,000×g for 5 minutes. Plasma was transferred to a separate tube and stored at −75±15° C. for PK analysis. Pharmacokinetic analyses for Example 101 in Lewis rats were performed as described in Experimental Method B.

[4] = Plasma stability assay, human plasma; assay type: in vitro ADME; settings: 37° C., Method 1 (5 μM)
[5] = PK study 1, PO 5 mg/kg, Test Animal 1, read-out: Plasma concentration
[6] = PK study 1, PO 5 mg/kg, Test Animal 2, read-out: Plasma concentration
[7] = PK study 1, PO 5 mg/kg, Test Animal 3, read-out: Plasma concentration
[8] = PK study 1, PO 5 mg/kg, read-out: Average plasma concentration, Mean
[9] = day 0, 10 mg/kg, individual test subjects
[10] = day 20, 10 mg/kg, individual test subjects

SMILES: CNC(=O)c1[nH]c(C(=O)NC2CCC2)cc1O[C@@H](C)c1ccccc1 [Example 101, N^5-cyclobutyl-N^2-methyl-3-(1-phenylethoxy)-1H-pyrrole-2,5-dicarboxamide]
- AUClast/D, Mean ([1]; PK study 1, IV 1 mg/kg): 1883 (ng · h/mL)/(mg/kg)
- AUC—% Extrap_obs, Mean ([1]; PK study 1, IV 1 mg/kg): 0.73%
- C0, Mean ([1]; PK study 1, IV 1 mg/kg): 1512 ng/mL
- Cl_obs, Mean ([1]; PK study 1, IV 1 mg/kg): 8.84 mL/min/kg
- Vss_obs, Mean ([1]; PK study 1, IV 1 mg/kg): 0.733 L/kg
- Vss_obs ([1]; PK study 1, IV 1 mg/kg, Test Animal 1): 0.734 L/kg
- Vss_obs ([1]; PK study 1, IV 1 mg/kg, Test Animal 2): 0.747 L/kg
- Vss_obs ([1]; PK study 1, IV 1 mg/kg, Test Animal 3): 0.719 L/kg
- AUClast/D, Mean ([1]; PK study 1, PO 5 mg/kg): 830 (ng · h/mL)/(mg/kg)
- AUC—% Extrap_obs, Mean ([1]; PK study 1, PO 5 mg/kg): 0.531%
- F, Mean ([1]; PK study 1, PO 5 mg/kg): 44.0%
- F ([1]; PK study 1, PO 5 mg/kg, Test Animal 1): 48.0%
- AUClast/D ([1]; PK study 1, PO 5 mg/kg, Test Animal 3): 1000 (ng · h/mL)/(mg/kg)
- clinical observations after intravenous administration ([1]; beagle dogs, PK study 1, group 1 (IV), 20% propylene glycol/20% Vitamin E TPGS/60% water, individual animals): Vomitus with solid food and soft feces; also recorded: twitching of hindlimbs; also recorded: Slight twitching and lacrimation
- clinical observations after oral administration ([1]; beagle dogs, PK study 1, group 2 (PO), 20% propylene glycol/20% Vitamin E TPGS/60% water): Loose feces
- time post-administration at which plasma concentrations began to steadily decrease ([1]; beagle dogs, PK study 1, oral administration): approximately 1 h
- tolerability in dog PK studies ([1]; beagle dogs, oral and intravenous): well tolerated
- concentration at 0.25 h [1, 5]: 173 ng/mL
- concentration at 0.25 h [1, 6]: 775 ng/mL
- concentration at 0.25 h [1, 7]: 309 ng/mL
- concentration at 0.25 h [1, 8]: 419 ng/mL
- concentration at 0.5 h [1, 5]: 1480 ng/mL
- concentration at 0.5 h [1, 6]: 1550 ng/mL
- concentration at 0.5 h [1, 7]: 1320 ng/mL
- concentration at 0.5 h [1, 8]: 1450 ng/mL
- concentration at 1 h [1, 5]: 2220 ng/mL
- concentration at 1 h [1, 6]: 1180 ng/mL
- concentration at 1 h [1, 7]: 2240 ng/mL
- concentration at 1 h [1, 8]: 1880 ng/mL
- concentration at 2 h [1, 5]: 1130 ng/mL
- concentration at 2 h [1, 6]: 621 ng/mL
- concentration at 2 h [1, 7]: 1310 ng/mL
- concentration at 2 h [1, 8]: 1020 ng/mL
- concentration at 4 h [1, 5]: 142 ng/mL
- concentration at 4 h [1, 6]: 103 ng/mL
- concentration at 4 h [1, 7]: 254 ng/mL
- concentration at 4 h [1, 8]: 166 ng/mL
- concentration at 8 h [1, 5]: 9.51 ng/mL
- concentration at 8 h [1, 6]: 14.8 ng/mL
- concentration at 8 h [1, 7]: 9.52 ng/mL
- concentration at 8 h [1, 8]: 11.3 ng/mL
- concentration at 24 h [1, 5]: 4.58 ng/mL
- concentration at 24 h [1, 8]: 1.53 ng/mL
- Plasma Stability (% remaining at 120 minutes) Mouse [2]: >99%
- AUClast/D [3, 9]: 820 kg·ng·h/mL/mg and 720 kg·ng·h/mL/mg
- Plasma concentration at 0.25 h [3, 9]: 375 ng/mL and 378 ng/mL and 754 ng/mL
- Plasma concentration at 24 h [3, 9]: 14.3 ng/mL and 35.6 ng/mL and 122 ng/mL
- T1/2 [3, 9]: 2.13 h and 2.54 h and 5.01 h
- Tmax [3, 9]: 10.0 h (2×) and 2.00 h
- AUCInf, Mean ([3]; day 0, 10 mg/kg, mean): 15371 ng·h/mL
- AUClast, Mean ([3]; day 0, 10 mg/kg, mean): 15019 ng·h/mL
- AUClast/D, Mean ([3]; day 0, 10 mg/kg, mean): 751 kg·ng·h/mL/mg
- AUC—% Extrap_obs, Mean ([3]; day 0, 10 mg/kg, mean): 2.29%
- MRTInf_obs, Mean ([3]; day 0, 10 mg/kg, mean): 8.61 h
- AUC—% Extrap_obs [3, 10]: 0.700%
- Cmax [3, 10]: 1660 ng/mL
- Plasma concentration at 8 h [3, 10]: 103 ng/mL and 215 ng/mL and 188 ng/mL
- Plasma concentration at 24 h [3, 10]: 16.7 ng/mL and 20.1 ng/mL and 38.1 ng/mL
- AUClast/D, Mean ([3]; day 20, 10 mg/kg, mean): 528 kg·ng·h/mL/mg
- AUC—% Extrap_obs, Mean ([3]; day 20, 10 mg/kg, mean): 1.11%
- Cmax, Mean ([3]; day 20, 10 mg/kg, mean): 1707 ng/mL
- MRTInf_obs, Mean ([3]; day 20, 10 mg/kg, mean): 6.66 h
- Plasma Stability (% remaining at 120 minutes) Human [4]: 93%
